Laboratory results: US20200093768A1, “METHOD FOR TREATING DIABETES” (Huanggang Normal University, priority 2018, published 2020)
Marks after values point to notes of the source that are not given here.

Legend:
[1] = tested on: Zucker diabetic fatty (ZDF) rats; experiment: Clinical chemistry analysis: insulin, adiponectin, lipid parameters; format: in vivo, rat
Procedure: Plasma analysis of insulin, adiponectin, cytokines and a full clinical chemistry panel with lipid parameters was performed at CRL using commercially available ELISA and colorimetric kits.

[2] = tested on: Zucker diabetic fatty (ZDF) rats; experiment: Fasted and fed blood glucose in ZDF rats; conditions: for Fasted blood glucose levels: 5 hrs fasted, versus ZDF vehicle control (FIG. 1A)
[3] = tested on: Zucker diabetic fatty (ZDF) rats; experiment: Oral glucose tolerance test (OGTT) on study day 29; conditions: day 29, overnight fasted, glucose 2 g/kg, versus ZDF vehicle control, metformin from 15 min (p<0.01), ibuprofen at 15 min (p<0.01) and 30 min (p<0.05)
[4] = tested on: Zucker diabetic fatty (ZDF) rats; experiment: HbA1c analysis in whole blood; format: in vivo, rat; conditions: after 30 days of treatment, versus ZDF controls (FIG. 3A)
Procedure: On study day 30, blood was collected at CRL. […] Glycated hemoglobin (HbA1c) levels in venous whole blood were determined at CRL using the HbA1c Now test kit (Bayer, Whippany, N.J.). HbA1c was measured in treatment groups by immunoassay with anti-HbA1c using tail nick whole blood.

[5] = tested on: Zucker diabetic fatty (ZDF) rats; experiment: Anti-inflammatory cytokines (IL-4, IL-10, IL-13) by ELISA; format: in vivo, rat; conditions: for IL-10 plasma levels: versus ZDF controls (FIG. 5B)
Text: On study day 30, blood was collected at CRL.
The expression of inflammatory genes in blood and epididymal adipose tissue was next analyzed. A panel of three anti-inflammatory cytokines in whole blood was quantified by ELISA analysis as a measure for systemic inflammation (FIG. 5). IL-4, IL-10 and IL-13 are involved in the reduction of the inflammatory response through inhibition of NFκB signaling and cytokine release from macrophages.

[6] = Body weight, food intake and BMI of ZDF rats treated once daily for 30 days; format: in vivo, rat; design: Food Intake / BMI: unit not given here; conditions: for Change in body weight versus ZDF control (in words): ibuprofen between day 8 and 26; for BMI / Body Weight / Food Intake: oral gavage once daily (metformin 250 mg/kg, ibuprofen 100 mg/kg); for BMI / Food Intake: n=8; for Body Weight: n=8, in g (unit assumed); for Food Intake: recorded weekly
hyperglycemic adults = conditions: clinical pilot study, low dosage of ibuprofen; cited from earlier work
[7] = tested on: inflammatory genes (COX-2, ICAM-1, IL-1β, IL-6, TNF-α) in whole blood; experiment: TaqMan qPCR of inflammatory genes in whole blood; format: in vivo, rat; conditions: ZDF rats, normalized to GAPDH, versus ZDF controls (FIG. 6A)
Procedure: On study day 30, blood was collected at CRL. HbA1c was measured at 8 hrs on a drop of tail whole blood and then animals were fasted. At 11 hrs, animals were dosed per normal and euthanized at 13 hrs by CO2 asphyxiation. Blood was withdrawn by cardiac puncture and 1 mL of whole blood placed into cryo vials for RNA extraction. Remaining blood was centrifuged (at 2200×g for 10 minutes at 22° C.) and serum (500 uL) pipetted into 96 well plates on dry ice for analysis of the following: insulin, adiponectin, clinical chemistry panel with lipid parameters, and the inflammatory panel. Liver, epididymal fat, kidney, heart and spleen were collected and a representative piece was snap frozen. 100 mg of tissue was transferred into 1.5 mL cold RNA later tubes and stored overnight at 4° C. before being moved to −20° C. […]
In the next set of experiments, the expression of a subset of inflammatory genes were quantified in whole blood (FIG. 6A) and epididymal fat tissue (FIG. 6B): cyclooxygenase-2 (COX-2), intracellular adhesion molecule-1 (ICAM-1), interleukin-1β (IL-1β), interleukin-6 (IL-6) and tumor necrosis factor-α (TNF-α) by TaqMan qPCR analysis. […]

[8] = after 30 days, versus ZDF controls (FIG. 4D-F)
[9] = Day 29 (after overnight fasting), mean

Row | SMILES | Fasting cholesterol [1, 8] | HDL [1, 8] | Fasted blood glucose levels [2] | Blood glucose in OGTT [3] | Glycated hemoglobin (HbA1c) [4] | IL-10 plasma levels [5] | Change in food intake versus ZDF control (in words) ([6]; chronic treatment) | Change in body weight versus ZDF control (in words) ([6]; chronic treatment) | BMI ([6]; Day 1, mean) | Body Weight ([6]; Day 1, mean) | Body Weight ([6]; Day 4, mean) | BMI ([6]; Day 8, mean) | Body Weight ([6]; Day 8, mean) | Body Weight ([6]; Day 11, mean) | BMI ([6]; Day 15, mean) | Body Weight ([6]; Day 15, mean) | Body Weight ([6]; Day 19, mean) | BMI ([6]; Day 22, mean) | Body Weight ([6]; Day 22, mean) | Body Weight ([6]; Day 26, mean) | also measured
1 | CC(C)Cc1ccc(C(C)C(=O)O)cc1 (stereo not drawn) [ibuprofen, 2-(4-Isobutylphenyl)propanoic acid] | strong decline | strong decline | did reduce fasting blood glucose levels but this was not significant | significant decrease in blood glucose | attenuated the glycation of hemoglobin | No significant changes | lower food intake | decline in body weight | 2.67 | 386.5 | 370.8 | 2.51* | 376.4** | 379.4* | 2.44 | 377.9 | 376.3* | 2.47 | 385.8 | 380.6* | IL-4 level ([5]; versus ZDF controls (FIG. 5A)): significantly increased; IL-13 levels ([5]; versus ZDF controls (FIG. 5C)): increased; Body Weight [6, 9]: 359.0; BMI ([6]; Day 29, mean): 2.28; Food Intake ([6]; Day 8, mean): 225.4**; Food Intake ([6]; Day 15, mean): 258.8*; Food Intake ([6]; Day 22, mean): 233.5*; Food Intake ([6]; Day 28, mean): 239.3*; Glucose and insulin in hyperglycemic adults (hyperglycemic adults): did not reveal major differences
2 | CN(C)C(=N)NC(=N)N [metformin, 1,1-dimethylbiguanide] | No significant differences | No significant differences | significant decrease | significant decline in blood glucose | did not significantly affect | No significant changes | did not cause any significant changes | did not cause any significant changes | 2.60 | 376.6 | 377.8 | 2.57 | 388.5 | 396.1 | 2.47 | 390.9 | 400.8 | 2.52 | 399.9 | 405.6 | LDL [1, 8]: No significant differences; Plasma insulin levels ([1]; day 30 (FIG. 3B)): 1.54 ng/mL; Fed glucose levels ([2]; fed, versus ZDF vehicle control (FIG. 1B)): significant higher levels on day 22 and 28; ICAM-1 gene expression [7]: no differences; Change in BMI versus ZDF control (in words) ([6]; chronic treatment): did not cause any significant changes; Body Weight [6, 9]: 378.9; BMI ([6]; Day 29, mean): 2.39; Food Intake ([6]; Day 8, mean): 255.1; Food Intake ([6]; Day 15, mean): 309.9; Food Intake ([6]; Day 22, mean): 299.1; Food Intake ([6]; Day 28, mean): 278.8
